Results as given in patent US10226465B2, “Composition for use in increasing engraftment efficacy of haematopoetic stem cells after transplantation” (priority 2015, dated 2019).

Legend:
EP2 receptors = EP2 receptors (Homo sapiens, UniProt P43116); details: read-out: Kd for activation of isolated EP2 receptors; cited from earlier work
[1] = test system: human haematopoetic CD34+ stem and progenitor cells; test: [3H]cAMP accumulation assay; assay type: cell-based; details: for cAMP response after pertussis toxin pretreatment: pertussis toxin 16 h, + 30 μM forskolin
Protocol: Human haematopoetic CD34+ stem and progenitor cells (HSPCs, 4*10^5/mL) were first preincubated for 16 h in the absence presence of 100 ng/ml pertussis toxin (Sigma Aldrich) in X-VIVO15 medium supplemented with growth factors followed by metabolic labelling of the adenine nucleotide pool by an additional 4 h incubation period in [^3H]adenine (Perkin Elmer, 1 μCi/mL) in the X-VIVO15 medium supplemented with growth factors and 10 μg/mL adenosine deaminase (Roche). Thereafter, the cells were challenged with 1 or 10 μM Treprostinil, 1 or 10 μM dimethyl-PGE2 (dmPGE2), forskolin (30 μM) or the combination of forskolin and prostanoids for 30 min. The cells were then pelleted (5 min at 100 g), the medium was removed and the pellet was lysed in ice-cold 2.5% perchloric acid (0.9 mL) containing 0.1 mM cAMP, held on ice for 1 h and neutralized with 4.2 M KOH (0.1 mL). ATP and cAMP were separated by sequential chromatography on columns containing Dowex AG50-X8 and neutral alumina (3).
After metabolic labelling with [3H]adenine, human HSPCs were stimulated with Treprostinil (Trep, 10 μM), dmPGE2 (10 μM) or forskolin (Fsk, 30 μM), the combination of Treprostinil (10 μM) or of dmPGE2 (10 μM) with forskolin (30 μM) as outlined under Materials and Methods. Where indicated HSPCs had been pretreated with pertussis toxin (PTX) for 16 h prior to stimulation. Data are from three independent experiments carried out in triplicate, error bars indicate s.e.m. […] This difference was abolished by pertussis toxin pretreatment (ns, not significant).

[2] = test system: lethally irradiated recipient BALB/c mice; test: In vivo homing assay (colony formation from recipient bone marrow, Example 4)
[3] = test system: lethally irradiated recipient BALB/c mice; test: Bone marrow transplantation (survival of recipient mice, Example 6); assay type: in vivo
Protocol: These were subsequently divided in two groups. Mice allocated to group 1 (n=10) were further subjected to in vivo treatment with Treprostinil (0.15 mg kg^−1 8 h^−1) whereas mice in group 2 (n=10) received both Treprostinil (0.15 mg kg^−1 8 h^−1) and AMD3100 (3.3 mg kg^−1 8 h^−1) by subcutaneous injection every 8 h for 10 days.
Isogenic recipient mice (C57BL/6 or BALB/c) were subjected to lethal irradiation. […] Lin^− (Sca1^+ and c-Kit^+) HSPCs cells were prepared as outlined above and were pretreated ex vivo in the absence and presence of the combination of 10 μM Treprostinil+30 μM forskolin (FSK) for 1 h at 37° C. Thereafter, the cells (1-5*10^5/mouse) were injected via the tail vein. White blood cell counts were determined by FACS, blood samples were collected every 3 to 5 days starting on day 9 (where blood cell count was ˜1 G/L. In some instances, mice (25-30 g) were also treated with (i) Treprostinil (0.15 mg kg 8 h^−1) and vildagliptin (10 mg kg−^1 12 h^−1) or with the combination of both administered subcutaneously every 8 h for 10 days.
If this was the case, the action of vildagliptin ought to be blunted by simultaneous administration of AMD3100/plerixafor. An experiment was done with seven groups of recipient BALB/c mice (5/group). Several of these groups were internal controls, which were included to verify that earlier findings were recapitulated. […] It is stressed that all conditions were tested in parallel, thus a comparison is legitimate.
Murine HPSCs isolated from donor BALB/c mice were treated in vitro with 10 μM Treprostinil and 30 μM forskolin or vehicle (solid line) for 1 h at 37° C. After washing, 2×10^5 cells were injected into lethally irradiated (10 Gy) recipient BALB/c mice. […] Another group of mice (dotted lines/triangles; n=20) received HSPCs pretreated with 10 μM Treprostinil and 30 μM forskolin, and were also treated in vivo with Treprostinil (0.15 mg kg−1 8 h−1). The next group of mice (dotted lines/squares; n=20) again received in vitro HSPCs pretreated with forskolin+Treprostinil and were further treated in vivo with both Treprostinil (0.15 mg kg^−1 8 h^−1) and vildagliptin (10 mg/kg/24 h). Finally, a group of mice (dashed lines/circles; n=20) received in vitro HSPCs pretreated with forskolin+Treprostinil and were treated in vivo with vildagliptin (10 mg kg−1 per day). In vivo treatment was done by subcutaneous injections, it was initiated directly after transplantation and continued for 10 days.

[4] = test system: lethally irradiated recipient C57Bl/6 (CD45.2+) mice; test: Homing assay (CD45.1+ donor cells in bone marrow of CD45.2+ recipients, FACS, Example 6); assay type: in vivo
Protocol: The lineage-negative HSPCs were isolated from whole bone marrow cells of donor mice B6.SJL-PtrcAPep3B/Boyl (CD45.1+) using MACS micro beads (see above). The cells were in vitro treated with 10 μM Treprostinil and 30 μM forskolin or vehicle control for 1 h at 37° C. After washing, 0.2×10^6 lineage-negative CD 45.1^+ cells were injected in to the lethally irradiated (10 Gy) recipient C57Bl/6 (CD45.2^+) mice. Recipient mice were also treated in vivo with either Treprostinil (0.15 mg kg 8 h^−1), vildagliptin (10 mg kg^−1) or with the combination of both drugs subcutaneously. Control mice were injected with the same volume of vehicle. The whole bone marrow cells were isolated from recipient mice 16 h after transplantation. After lysis of red blood cells, the cells were stained for CD45.1 and CD45.2 markers. The proportion of CD45.1^+ and CD45.2^+ cells in the bone marrow was determined by flow cytometry.
Given that DPP-IV inhibitors may be a suitable combination partner for Treprostinil, we explored whether the DPP-IV inhibitor vildagliptin enhanced the action of Treprostinil. This was first tested in an approach, which measured the ability of injected HSPCs to home into the bone marrow: HSPCs harvested from the bone marrow of CD 45.1+ donor mice were injected into isogenic CD45.2 recipients. The animals were sacrificed after 16 h and the amount of CD45.1+ cells, which were retrieved from their bone marrows was quantified by FACS.
The recipient mice were then divided in 7 groups. […] Mice allocated to group 3 received only in vitro-treated cells, those in group 4 were subjected—in addition—to in vivo Treprostinil (Trep, 0.15 mg kg^−1 8 h^−1). Mice assigned to group 5 were administered a combined in vivo treatment with Treprostinil (0.15 mg kg−1 8 h−1) and AMD3100 (3.3 mg kg^−1 8 h^−1). Mice in group 5 received in vivo both Treprostinil (0.15 mg kg^−1 8 h^−1) and vildagliptin (10 mg kg^−1/d), and finally mice in group 6 were subjected to in vivo vildagliptin. The ability of CD45.1+cells to home into the bone marrow was assessed after 16 h by analysing the bone marrow of the recipients by FACS. Data are as means±SEM (n=3). Statistical comparisons were done by ANOVA followed by Tukey's multiple comparison.

[5] = test system: lethally irradiated recipient BALB/c mice; test: In vivo engraftment assay (survival, Example 5); details: 0.2×10^6 pretreated cells, 10/group
Protocol: Haematopoetic progenitor cells isolated from bone marrow of donor mice (BALB/c) as outlined in the legend to FIG. 4. The cells were treated in vitro with 10 μM Treprostinil and 30 μM forskolin or vehicle for 1 h at 37° C. After washing, 0.2×10^6 lineage-negative haematopoetic progenitor cells were injected via the tail vein into lethally irradiated (9 Gy) recipient BALB/c mice (10/group). If not pretreated in vitro with the combination of Treprostinil and forskolin, this number of haematopoetic progenitor cells is too low to rescue the recipient animals. Accordingly, the group of mice, which received cells that had not been pretreated, died within the first week (black line, CTRL). The limiting number of haematopoetic stem cells sufficed to rescue 50% of the mice, which had received pretreated cells and were then treated with Treprostinil (3 μg/8 h s.c. for 10 days; red curve labeled in vitro pretreated cells+in vivo treatment of recipient mice with Treprostinil). […] In contrast, mice, which received the combination of Treprostinil (3 μg/8 h) and vildagliptin (10 mg/kg/24 h) had the worst outcome of all recipient mice that had received pretreated cells: only 2 out of ten mice survived (grey line labeled in vitro pretreated cells+in vivo treatment of recipient mice with the combination of Treprostinil and vildagliptin). […]

[6] = test system: murine haematopoetic progenitor cells; test: In vitro migration assay (Transwell, towards SDF-1/CXCL12), murine cells; assay type: cell-based; details: 100 ng/ml murine SDF-1, 4 h; for SDF-1/CXCL12-induced migration of Treprostinil+forskolin-stimulated cells: 10 μM AMD3100
Protocol: Murine haematopoetic progenitor cells were pretreated in vitro with the combination of 10 μM Treprostinil (Trep) and 30 μM forskolin (Fsk) (Sigma Aldrich, Vienna, Austria) or vehicle for 1 h at 37° C. in growth factor containing stem cell medium [(StemSpan™ (SFEM) (Stemcell technologies, USA) (50 ng/mL murine stem cell factor (SCF), 50 ng/mL fms-like tyrosine kinase-3 ligand (Flt3), 50 ng/mL interleukin 11 (IL11) and 150 ng/mL murine interleukin 3 (mIL3)] purchased from PeproTech (London, United Kingdom)). Thereafter cells were washed and resuspended at 2×10^6 cells/mL in medium.
The cell suspension (0.1 mL containing 2×10^5 cells) was added to the upper chamber of Transwell™ dishes (5 μm pore diameter). The bottom chamber was followed with medium or medium containing 100 ng/ml murine stromal derived factor-1 (SDF-1=CXCL12). Cells were allowed to migrate for 4 h at 37° C. Subsequently, the number of cells recovered from the lower chamber was determined by a cell counter. The number of migrated cells was expressed as percentage of total cells added to the upper chamber.
Hematopoietic stem and progenitor cells were preincubated with Treprostinil (10 μM; T) and forskolin (30 μM; F) for 1 h at 37° C., washed and resuspended at a cell density of 2×10^6 cells/mL. The cell suspension (2×10^5 cells in 0.1 mL) was added to the upper chamber the Transwell™ dish, which contained medium with and without 10 ΞM CXCR4 antagonist AMD3100 (10 μM). The medium in the lower chamber contained 100 ng/ml murine SDF-1. The incubation lasted for 4 h at 37° C.; thereafter cells recovered in the lower chamber were counted as outlined in the legend to FIG. 1. Data shown are means±SEM from three independent experiments carried out in triplicate. Statistically significant differences were assessed by one way ANOVA followed by Dunnett's multiple comparisons (***, p<0.001).

[7] = Treprostinil+forskolin-treated cells, recipients treated in vivo (Treprostinil 3 μg/8 h, vildagliptin 10 mg/kg/24 h)
[8] = untreated cells, recipients treated in vivo (Treprostinil 3 μg/8 h, vildagliptin 10 mg/kg/24 h) from 24 h before transplantation
[9] = 2*10^5 Treprostinil+forskolin-pretreated HSPCs, in vivo s.c. for 10 days (Treprostinil 0.15 mg kg-1 8 h-1 or vildagliptin 10 mg kg-1 per day), n=20
[10] = seven groups, 5/group, all received 2*10^5 Treprostinil+forskolin-pretreated HSPCs, in vivo treatment as named
[11] = Treprostinil+forskolin-pretreated HSPCs, recipients given one drug in vivo (Treprostinil 0.15 mg kg-1 8 h-1 or vildagliptin 10 mg kg-1/d), 16 h
[12] = pretreated HSPCs, recipients given Treprostinil in vivo plus the named drug (AMD3100 3.3 mg kg-1 8 h-1 or vildagliptin 10 mg kg-1/d)

Chain of EP2 receptors (P43116 whole entry): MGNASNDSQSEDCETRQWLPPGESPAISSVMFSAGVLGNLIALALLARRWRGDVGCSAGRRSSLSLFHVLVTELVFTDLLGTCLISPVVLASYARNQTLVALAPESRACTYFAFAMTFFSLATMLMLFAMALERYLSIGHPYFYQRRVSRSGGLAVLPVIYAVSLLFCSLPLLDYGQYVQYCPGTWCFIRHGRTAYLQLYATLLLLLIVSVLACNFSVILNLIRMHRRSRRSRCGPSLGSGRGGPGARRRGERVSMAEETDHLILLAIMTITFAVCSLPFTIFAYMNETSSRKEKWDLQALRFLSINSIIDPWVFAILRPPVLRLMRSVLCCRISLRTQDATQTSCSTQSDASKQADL

| SMILES | cAMP response after pertussis toxin pretreatment [1] | homing into bone marrow (colonies) [2, 7] | homing into bone marrow (colonies) [2, 8] | survival of recipient mice [3, 9] [%] | survival of recipient mice [3, 10] | homing of CD45.1+ cells into bone marrow [4, 11] | homing of CD45.1+ cells into bone marrow [4, 12] | other results |
| --- | --- | --- | --- | --- | --- | --- | --- | --- |
| CCCCC(C)(C)[C@H](O)/C=C/[C@H]1[C@H](O)CC(=O)[C@@H]1C/C=C\CCCC(=O)O [dmPGE2, 16,16-dimethyl PGE2] | increased the response to dmPGE2 | – | – | – | – | – | – | Kd (EP2 receptors): ~1 nM |
| N#C[C@@H]1CCCN1C(=O)CNC12CC3CC(CC(O)(C3)C1)C2 [vildagliptin] | – | promoted homing | did not promote homing | 100 | fared best | most pronounced increase in homing | abrigated the homing effect of Treprostinil | homing of CD45.1+ cells into bone marrow ([4]; untreated HSPCs, recipients given vildagliptin 10 mg kg-1/d in vivo): did not enhance homing; mice survived ([5]; in vivo s.c. for 10 days (vildagliptin 10 mg/24 h; combination Treprostinil 3 μg/8 h + vildagliptin 10 mg/kg/24 h)): 10 out of 10; SDF-1/CXCL12-induced migration of Treprostinil+forskolin-preincubated cells ([6]; 30 nM vildagliptin): enhances the SDF-1/CXCL12-induced migration |
| c1cc(CN2CCCNCCNCCCNCC2)ccc1CN1CCCNCCNCCCNCC1 [AMD3100] | – | – | – | – | Enhances Survival | – | abolished | survival of recipient mice ([3]; pretreated HSPCs, AMD3100 3.3 mg kg-1 8 h-1 concomitant with Treprostinil 0.15 mg kg-1 8 h-1 s.c. 10 days, n=10): all recipient mice eventually succumbed to bone marrow failure; SDF-1/CXCL12-induced migration of Treprostinil+forskolin-stimulated cells [6]: inhibits the SDF-1/CXCL12-induced migration; SDF-1/CXCL12-induced migration of Treprostinil+forskolin-stimulated cells ([6]; listed as plerixafor/AMD3100): blocked |
| CCCCC[C@H](O)CC[C@@H]1[C@H]2Cc3cccc(OCC(=O)[O-])c3C[C@H]2C[C@H]1O.[Na+] [Treprostinil, (1R,2R,3aS,9aS)-[[2,3,3a,4,9,9a-hexahydro-2-hydroxy-1-[(3S)-3-hydroxyoctyl]-1H-benz[f]inden-5-yl]oxy]acetic acid monosodium salt] | no significant difference | promoted homing | did not promote homing | 60 | – | increased their homing into the bone marrow | – | shape of in vivo dose-response-curve for bone marrow engraftment ([3]; noted previously, higher doses less beneficial than standard dose): bell-shaped; mice rescued ([5]; in vivo Treprostinil 3 μg/8 h s.c. for 10 days): 50%; cAMP in haematopoetic progenitor cells [1]: stimulates cAMP; cAMP accumulation, efficacy compared ([1]; 10 μM, in the presence of 30 μM forskolin, 30 min): more efficacious than 10 μM dmPGE2; cAMP accumulation, efficacy compared ([1]; absence or presence of 30 μM forskolin): significantly more efficacious than dmPGE2; span of concentration-response curve (cAMP) ([1]; human haematopoetic stem and progenitor cells): more than two orders of magnitude between 10 and 90% of the response |
